“Also recorded” adds a separate entry of the source.
System: FlAsH-labeled full-length p53 (M133L/V203A/N239Y/N268D)
Assay: Fluorescence-monitored analytical ultracentrifugation sedimentation velocity
Assay type: binding
Settings: 25–50 nM FlAsH-p53, peptide up to 500 µM or solubility limit; 25 mM NaPi pH 7.2, 150 mM NaCl, 10% glycerol, 10°C
Method: We tested whether the peptides that bind tetrameric p53CTD can bind specifically to tetrameric p53 in a mixture of the different oligomers. Testing the specificity of the peptides for tetrameric p53 must be performed at very low p53 concentrations (<100 nM), where a significant population of dimers is present in addition to the tetramers [21]. Therefore, we used fluorescence-monitored analytical ultracentrifugation sedimentation velocity experiments using FlAsH-labeled full-length p53. The fluorescent label on p53 enables working at nanomolar protein concentrations and allows for specific detection of the protein without interference from any other molecule in the solution.
We incubated FlAsH-p53 with different concentrations of the peptides and measured the sedimentation profiles of the protein (Figure 7). […] Sedimentation coefficients of∼2 S correspond to dimers and∼3 S correspond to tetramers. Presumably, sedimentation coefficients of up to∼4 S correspond to p53 tetramers bound to one or more peptide molecules. […] Most likely higher sedimentation coefficients (>4 S) correspond to higher-order oligomers of p53.
C-terminally FlAsH-tagged (CCPGCC) p53 was expressed and reacted with FlAsH-EDT2 as described [24]. This introduces a specific fluorescent label at the carboxy terminus of p53. The protein was dialyzed against 25 mM NaPi pH = 7.2, 150 mM NaCl, 14.2 mM β-mercaptoethanol, 0.2 mg/ml BSA and 10% glycerol. […] The measurements were performed in a Beckman-Coulter Optima XL-I ultracentrifuge with an Aviv fluorescence detection system [29] in SedVel60K-FDS fluorescence velocity cells. The samples were equilibrated in the cells at 10°C for 3 hours before centrifugation. The AUC run was performed as described [23], [48] and analyzed using SedFit software [56].

For CSCC[C@H](NC(=O)CNC(=O)[C@@H]1CCCN1C(=O)[C@H](CCC(N)=O)NC(=O)[C@H](CC(C)C)NC(=O)[C@@H](N)[C@@H](C)O)C(=O)N[C@@H](CCCNC(=N)N)C(=O)N[C@H](C(=O)N[C@@H](CCCNC(=N)N)C(=O)N[C@@H](CCSC)C(=O)N[C@@H](CC(C)C)C(=O)N[C@@H](CC(=O)O)C(=O)N[C@@H](CC(=O)O)C(=O)N[C@@H](Cc1ccc(O)cc1)C(=O)N[C@@H](CCC(=O)O)C(N)=O)C(C)C [Cul7(376–390)], the AUC effect was “a specific shift of the tetramer peak was observed but at much higher concentrations, and no high-order oligomers were formed; also recorded: causes a shift of the tetramer peak at very high peptide concentrations; also recorded: Tetramer shift”.

CC[C@H](C)[C@H](NC(=O)[C@H](CCC(=O)O)NC(=O)[C@H](CCC(=O)O)NC(=O)[C@H](Cc1ccc(O)cc1)NC(=O)[C@H](CC(=O)O)NC(=O)[C@H](CC(=O)O)NC(=O)[C@H](CC(C)C)NC(=O)[C@H](CCSC)NC(=O)[C@H](CCCNC(=N)N)NC(=O)[C@@H](NC(=O)[C@H](CCCNC(=N)N)NC(=O)[C@H](CCSC)NC(=O)CN)C(C)C)C(=O)N[C@@H](CO)C(=O)N[C@@H](C)C(N)=O [PARC(386–400)] was tested, and the AUC effect was “a specific shift of the tetramer peak was observed but at much higher concentrations, and no high-order oligomers were formed; also recorded: Tetramer shift”.

From paper PMC3365014, “Specific Recognition of p53 Tetramers by Peptides Derived from p53 Interacting Proteins” (PLoS ONE, 2012)
